ChEMBL document CHEMBL1153372, “A selective matrix metalloprotease 12 inhibitor for potential treatment of chronic obstructive pulmonary disease (COPD): discovery of (S)-2-(8-(methoxycarbonylamino)dibenzo[b,d]furan-3-sulfonamido)-3-methylbutanoic acid (MMP408)” (J Med Chem, 2009)
pIC50: −log10 of the molar value. Each block holds one molecule with its values, some of them ahead of it.

Experiments:
Collagenase 3 = Collagenase 3 (Homo sapiens, UniProt P45452); assay: Inhibition of human recombinant MMP13 expressed in Escherichia coli
[1] = Volume of distribution at steady state in C57BL/6 mouse at 2 mg/kg, iv; format: ADME, organism-based; design: dose 2 mg/kg, route intravenous; conditions: in vivo, read-out: Vdss
[2] = Clearance in C57BL/6 mouse at 2 mg/kg, iv; format: ADME, organism-based; design: dose 2 mg/kg, route intravenous; conditions: in vivo
[3] = Cmax in C57BL/6 mouse at 30 mg/kg, po; format: ADME, organism-based; design: dose 30 mg/kg, route oral; conditions: in vivo
[4] = AUC in C57BL/6 mouse at 30 mg/kg, po; format: ADME, organism-based; design: dose 30 mg/kg, route oral; conditions: plasma
[5] = Oral bioavailability in C57BL/6 mouse at 30 mg/kg; format: ADME, organism-based; conditions: in vivo
Stromelysin-1 = Stromelysin-1 (Homo sapiens, UniProt P08254); assay: Inhibition of human MMP3
Stromelysin-1, sequence (P08254 whole entry): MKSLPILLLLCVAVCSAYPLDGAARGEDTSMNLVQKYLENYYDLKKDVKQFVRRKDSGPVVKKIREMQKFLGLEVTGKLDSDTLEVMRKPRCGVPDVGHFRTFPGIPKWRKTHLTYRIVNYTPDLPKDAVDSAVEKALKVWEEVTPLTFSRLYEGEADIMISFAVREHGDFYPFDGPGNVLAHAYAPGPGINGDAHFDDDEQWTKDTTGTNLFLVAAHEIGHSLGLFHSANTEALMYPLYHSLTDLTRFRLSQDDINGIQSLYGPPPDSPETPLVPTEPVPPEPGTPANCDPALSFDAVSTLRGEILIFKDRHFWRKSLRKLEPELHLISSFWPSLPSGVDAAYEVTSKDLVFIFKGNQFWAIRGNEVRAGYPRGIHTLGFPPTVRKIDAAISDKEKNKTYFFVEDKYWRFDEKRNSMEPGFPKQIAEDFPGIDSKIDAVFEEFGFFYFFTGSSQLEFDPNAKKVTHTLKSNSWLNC

Matrilysin = molecular target: T1, Matrilysin (Homo sapiens, UniProt P09237); assay: Inhibition of human MMP7
T1 sequence (P09237 whole entry): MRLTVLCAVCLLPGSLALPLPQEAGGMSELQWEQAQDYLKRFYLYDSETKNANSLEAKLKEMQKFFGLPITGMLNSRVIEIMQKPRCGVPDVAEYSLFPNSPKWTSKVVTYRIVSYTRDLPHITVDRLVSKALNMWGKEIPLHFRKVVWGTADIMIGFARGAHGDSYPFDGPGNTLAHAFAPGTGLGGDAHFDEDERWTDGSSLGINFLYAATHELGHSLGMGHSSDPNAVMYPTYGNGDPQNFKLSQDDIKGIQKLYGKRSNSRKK

[6] = molecular target: Matrix metalloproteinase-9 (Homo sapiens, UniProt P14780); assay: Inhibition of human MMP9
Matrix metalloproteinase-9, sequence (P14780 whole entry): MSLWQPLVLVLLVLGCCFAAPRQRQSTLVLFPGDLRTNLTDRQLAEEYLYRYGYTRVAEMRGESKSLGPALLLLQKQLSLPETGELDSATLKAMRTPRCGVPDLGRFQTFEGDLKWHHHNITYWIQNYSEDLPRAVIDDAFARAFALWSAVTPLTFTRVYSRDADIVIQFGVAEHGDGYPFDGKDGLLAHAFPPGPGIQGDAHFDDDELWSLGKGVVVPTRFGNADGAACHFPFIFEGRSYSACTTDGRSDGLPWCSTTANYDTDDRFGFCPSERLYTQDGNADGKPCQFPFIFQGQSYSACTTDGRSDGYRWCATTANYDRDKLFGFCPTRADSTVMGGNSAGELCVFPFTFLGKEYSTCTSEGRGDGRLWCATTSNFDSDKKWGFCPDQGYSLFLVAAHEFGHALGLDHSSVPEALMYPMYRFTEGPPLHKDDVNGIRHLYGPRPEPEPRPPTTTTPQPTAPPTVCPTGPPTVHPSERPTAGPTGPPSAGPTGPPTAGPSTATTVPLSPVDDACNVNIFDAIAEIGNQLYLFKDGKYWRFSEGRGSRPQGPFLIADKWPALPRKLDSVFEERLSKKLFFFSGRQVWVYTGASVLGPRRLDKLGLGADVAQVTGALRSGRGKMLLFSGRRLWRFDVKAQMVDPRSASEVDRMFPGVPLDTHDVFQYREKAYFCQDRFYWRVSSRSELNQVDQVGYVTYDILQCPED

[7] = molecular target: T2, A disintegrin and metalloproteinase with thrombospondin motifs 4 (Homo sapiens, UniProt O75173); assay: Inhibition of human Aggrecanase-1
T2 sequence (O75173 whole entry): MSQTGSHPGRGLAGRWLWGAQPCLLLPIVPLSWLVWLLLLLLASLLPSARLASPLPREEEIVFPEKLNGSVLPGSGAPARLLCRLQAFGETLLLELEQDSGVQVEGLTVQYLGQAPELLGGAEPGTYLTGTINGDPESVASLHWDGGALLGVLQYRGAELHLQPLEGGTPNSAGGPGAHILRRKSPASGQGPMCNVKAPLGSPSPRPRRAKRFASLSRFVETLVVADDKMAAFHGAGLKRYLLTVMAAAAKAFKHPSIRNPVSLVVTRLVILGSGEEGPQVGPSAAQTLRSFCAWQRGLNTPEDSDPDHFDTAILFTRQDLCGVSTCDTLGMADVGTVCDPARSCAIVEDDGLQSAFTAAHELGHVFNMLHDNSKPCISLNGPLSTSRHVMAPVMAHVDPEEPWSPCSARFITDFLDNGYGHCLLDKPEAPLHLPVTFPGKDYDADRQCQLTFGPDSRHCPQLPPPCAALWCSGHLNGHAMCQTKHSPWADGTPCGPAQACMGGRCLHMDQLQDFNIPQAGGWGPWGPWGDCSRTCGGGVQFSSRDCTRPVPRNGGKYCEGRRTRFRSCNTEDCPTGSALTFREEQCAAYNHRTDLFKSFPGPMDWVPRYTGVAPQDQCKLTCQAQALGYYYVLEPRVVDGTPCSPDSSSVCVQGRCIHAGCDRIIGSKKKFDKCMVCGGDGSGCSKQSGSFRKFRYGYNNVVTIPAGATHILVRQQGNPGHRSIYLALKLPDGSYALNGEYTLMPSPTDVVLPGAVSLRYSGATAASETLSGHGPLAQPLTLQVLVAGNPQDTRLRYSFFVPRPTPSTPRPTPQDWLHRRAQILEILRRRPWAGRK

[8] = molecular target: T3, A disintegrin and metalloproteinase with thrombospondin motifs 5 (Homo sapiens, UniProt Q9UNA0); assay: Inhibition of human Aggrecanase-2
T3 sequence (Q9UNA0 whole entry): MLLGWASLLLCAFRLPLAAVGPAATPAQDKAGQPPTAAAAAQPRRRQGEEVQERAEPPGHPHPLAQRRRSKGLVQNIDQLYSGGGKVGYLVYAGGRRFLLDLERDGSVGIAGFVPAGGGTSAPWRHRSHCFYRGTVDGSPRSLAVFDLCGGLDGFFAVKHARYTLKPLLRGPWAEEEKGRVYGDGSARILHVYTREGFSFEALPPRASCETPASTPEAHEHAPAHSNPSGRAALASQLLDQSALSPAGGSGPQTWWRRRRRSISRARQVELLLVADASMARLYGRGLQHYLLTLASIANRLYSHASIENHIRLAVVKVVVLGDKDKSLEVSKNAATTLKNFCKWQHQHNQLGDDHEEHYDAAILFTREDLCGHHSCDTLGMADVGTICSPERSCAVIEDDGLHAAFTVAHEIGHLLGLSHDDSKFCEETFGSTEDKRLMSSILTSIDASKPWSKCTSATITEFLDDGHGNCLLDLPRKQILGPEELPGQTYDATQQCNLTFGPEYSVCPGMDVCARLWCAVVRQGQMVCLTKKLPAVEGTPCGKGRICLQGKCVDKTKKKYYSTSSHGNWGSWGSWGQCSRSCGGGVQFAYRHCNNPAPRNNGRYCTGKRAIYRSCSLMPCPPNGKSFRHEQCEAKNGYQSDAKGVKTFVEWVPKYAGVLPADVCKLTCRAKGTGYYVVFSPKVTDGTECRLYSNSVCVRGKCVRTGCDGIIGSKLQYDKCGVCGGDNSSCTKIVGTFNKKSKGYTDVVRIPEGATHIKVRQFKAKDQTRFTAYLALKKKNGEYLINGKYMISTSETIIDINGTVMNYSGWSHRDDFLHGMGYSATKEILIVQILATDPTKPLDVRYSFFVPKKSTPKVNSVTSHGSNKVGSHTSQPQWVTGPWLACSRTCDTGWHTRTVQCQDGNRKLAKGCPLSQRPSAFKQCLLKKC

[9] = molecular target: Matrix metalloproteinase-14 (Homo sapiens, UniProt P50281); assay: Inhibition of human MMP14
[10] = Metabolic stability in mouse liver microsomes; format: ADME, Microsome
[11] = Metabolic stability in rat liver microsomes; format: ADME, Microsome
[12] = Metabolic stability in dog liver microsomes; format: ADME, Canis lupus familiaris, Microsome
[13] = Metabolic stability in monkey liver microsomes; format: ADME, Macaca mulatta, Microsome; conditions: rhesus monkey
[14] = molecular target: Voltage-gated inwardly rectifying potassium channel KCNH2 (Homo sapiens, UniProt Q12809); assay: Inhibition of human ERG channel
Voltage-gated inwardly rectifying potassium channel KCNH2, sequence (Q12809 whole entry): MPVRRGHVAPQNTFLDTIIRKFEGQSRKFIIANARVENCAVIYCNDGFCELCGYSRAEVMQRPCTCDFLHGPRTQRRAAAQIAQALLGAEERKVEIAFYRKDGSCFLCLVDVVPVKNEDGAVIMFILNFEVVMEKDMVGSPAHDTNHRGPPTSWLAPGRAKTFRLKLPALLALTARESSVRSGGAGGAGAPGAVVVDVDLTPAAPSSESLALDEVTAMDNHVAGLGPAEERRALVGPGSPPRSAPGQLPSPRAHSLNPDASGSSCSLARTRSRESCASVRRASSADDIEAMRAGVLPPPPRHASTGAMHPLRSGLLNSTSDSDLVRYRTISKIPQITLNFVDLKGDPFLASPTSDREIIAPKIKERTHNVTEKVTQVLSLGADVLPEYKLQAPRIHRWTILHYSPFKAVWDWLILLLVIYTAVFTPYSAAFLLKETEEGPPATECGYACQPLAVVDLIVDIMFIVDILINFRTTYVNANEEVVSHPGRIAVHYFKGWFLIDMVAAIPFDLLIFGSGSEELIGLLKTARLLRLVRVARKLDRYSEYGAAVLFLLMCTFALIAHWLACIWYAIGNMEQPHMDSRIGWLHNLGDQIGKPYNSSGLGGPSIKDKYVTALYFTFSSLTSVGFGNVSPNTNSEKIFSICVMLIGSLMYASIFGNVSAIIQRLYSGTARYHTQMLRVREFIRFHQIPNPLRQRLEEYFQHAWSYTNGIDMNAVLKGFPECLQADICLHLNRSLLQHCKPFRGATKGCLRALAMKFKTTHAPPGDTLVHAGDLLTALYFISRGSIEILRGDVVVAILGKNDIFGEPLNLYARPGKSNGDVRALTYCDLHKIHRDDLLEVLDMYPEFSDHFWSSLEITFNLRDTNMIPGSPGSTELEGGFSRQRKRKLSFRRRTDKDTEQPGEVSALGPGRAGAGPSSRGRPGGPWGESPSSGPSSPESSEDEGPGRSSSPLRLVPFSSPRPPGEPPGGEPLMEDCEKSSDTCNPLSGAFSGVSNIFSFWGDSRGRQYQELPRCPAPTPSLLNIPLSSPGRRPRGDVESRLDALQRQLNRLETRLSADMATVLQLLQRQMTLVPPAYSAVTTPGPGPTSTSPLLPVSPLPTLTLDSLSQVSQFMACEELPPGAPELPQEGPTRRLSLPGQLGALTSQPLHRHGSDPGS

[15] = Metabolic stability in human liver microsomes; format: ADME, Microsome
Mus musculus [16] = assay: Inhibition of human recombinant MMP-12-induced lung inflammation in C57BL/6 mouse chronic obstructive pulmonary disease model assessed as inhibition of bronchoalveolar lavage fluid macrophage level at 30 mg/kg, po qd; format: functional; conditions: C57BL/6, Lung
Mus musculus [17] = assay: Inhibition of human recombinant MMP-12-induced lung inflammation in po dosed C57BL/6 mouse chronic obstructive pulmonary disease model assessed as inhibition of lung inflammation dosed twice daily; format: functional; conditions: C57BL/6, po, read-out: MED
Mus musculus [18] = assay: Inhibition of human recombinant MMP-12-induced lung inflammation in C57BL/6 mouse chronic obstructive pulmonary disease model assessed as inhibition of bronchoalveolar lavage fluid inflammation at 30 mg/kg, po qd; format: functional; conditions: C57BL/6, Lung
Interstitial collagenase = molecular target: T4, Interstitial collagenase (Homo sapiens, UniProt P03956); assay: Inhibition of human MMP1
T4 sequence (P03956 whole entry): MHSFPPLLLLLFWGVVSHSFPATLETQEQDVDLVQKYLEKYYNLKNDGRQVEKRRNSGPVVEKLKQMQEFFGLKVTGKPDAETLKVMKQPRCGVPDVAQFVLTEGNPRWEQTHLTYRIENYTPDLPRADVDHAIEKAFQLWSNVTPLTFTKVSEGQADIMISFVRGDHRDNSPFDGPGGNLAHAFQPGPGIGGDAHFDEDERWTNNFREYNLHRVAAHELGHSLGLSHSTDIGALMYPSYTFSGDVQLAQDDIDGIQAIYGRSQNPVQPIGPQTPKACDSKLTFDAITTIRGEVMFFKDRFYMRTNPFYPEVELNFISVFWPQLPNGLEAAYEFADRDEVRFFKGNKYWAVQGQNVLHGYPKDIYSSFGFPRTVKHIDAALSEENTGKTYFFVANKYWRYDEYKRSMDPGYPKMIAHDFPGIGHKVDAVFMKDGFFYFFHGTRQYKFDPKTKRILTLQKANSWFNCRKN

[19] = Inhibition of sheep MMP12; design: species or system Ovis aries
[20] = molecular target: Macrophage metalloelastase (Mus musculus, UniProt P34960); assay: Inhibition of mouse recombinant MMP12
Macrophage metalloelastase (Mus musculus, UniProt P34960), sequence (P34960 whole entry): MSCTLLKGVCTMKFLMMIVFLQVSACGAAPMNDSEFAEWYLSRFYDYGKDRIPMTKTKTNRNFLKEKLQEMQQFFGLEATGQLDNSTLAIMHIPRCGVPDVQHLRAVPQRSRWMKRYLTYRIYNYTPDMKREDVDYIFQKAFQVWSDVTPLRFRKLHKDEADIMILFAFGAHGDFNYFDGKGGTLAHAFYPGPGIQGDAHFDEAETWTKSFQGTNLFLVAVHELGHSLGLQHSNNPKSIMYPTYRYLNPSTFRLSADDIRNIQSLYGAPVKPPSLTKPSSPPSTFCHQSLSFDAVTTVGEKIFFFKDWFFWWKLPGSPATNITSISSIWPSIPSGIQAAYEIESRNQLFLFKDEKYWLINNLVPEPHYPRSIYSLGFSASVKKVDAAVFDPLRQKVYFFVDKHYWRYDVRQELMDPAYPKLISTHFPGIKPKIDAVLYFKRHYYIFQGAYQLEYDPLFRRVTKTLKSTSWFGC

[21] = Half life in C57BL/6 mouse at 30 mg/kg, po; format: ADME, organism-based; design: dose 30 mg/kg, route oral; conditions: in vivo
[22] = molecular target: Macrophage metalloelastase (Rattus norvegicus, UniProt Q63341)
Macrophage metalloelastase (Rattus norvegicus, UniProt Q63341), sequence (Q63341 whole entry): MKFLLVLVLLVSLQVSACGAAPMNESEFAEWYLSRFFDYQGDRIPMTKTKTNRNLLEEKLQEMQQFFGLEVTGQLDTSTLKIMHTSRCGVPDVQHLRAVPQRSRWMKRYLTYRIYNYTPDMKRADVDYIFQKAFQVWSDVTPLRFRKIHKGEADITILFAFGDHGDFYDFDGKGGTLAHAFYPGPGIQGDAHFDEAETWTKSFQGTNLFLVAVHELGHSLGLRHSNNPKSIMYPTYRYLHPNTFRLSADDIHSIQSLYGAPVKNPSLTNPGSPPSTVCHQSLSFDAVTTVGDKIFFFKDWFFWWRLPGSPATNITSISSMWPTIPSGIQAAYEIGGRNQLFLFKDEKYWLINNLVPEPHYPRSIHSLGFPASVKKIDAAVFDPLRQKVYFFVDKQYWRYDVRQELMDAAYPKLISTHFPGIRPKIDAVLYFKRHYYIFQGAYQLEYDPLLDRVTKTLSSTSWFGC

- pIC50 (Collagenase 3): 6.44
Compound: CC(C)[C@H](NS(=O)(=O)c1ccc2c(c1)oc1cc(NC(=O)Oc3ccc(F)cc3)ccc12)C(=O)O

Compound: CC(C)[C@H](NS(=O)(=O)c1ccc2c(c1)oc1ccc(NC(=O)NC3CCCC3)cc12)C(=O)O
- pIC50 (Collagenase 3): 8.68

Compound: CC(C)[C@H](NS(=O)(=O)c1ccc2c(c1)oc1ccc(NC(=O)NCCc3cccs3)cc12)C(=O)O
- pIC50 (Collagenase 3): 8.96
- Vd [1]: 15.6 L/kg
- clearance [2]: 211 mL/min/kg

- pIC50 (Collagenase 3): 6.74
Compound: CC(C)[C@H](NS(=O)(=O)c1ccc2c(c1)oc1ccc(NC(=O)Oc3ccccc3Cl)cc12)C(=O)O

- pIC50 (Collagenase 3): < 6.00
Compound: COC(=O)Nc1ccc2c(c1)oc1cc(S(=O)(=O)N[C@H](C(=O)O)C(C)C)ccc12

Compound: CCCOC(=O)Nc1ccc2oc3cc(S(=O)(=O)N[C@H](C(=O)O)C(C)C)ccc3c2c1
- pIC50 (Collagenase 3): 8.00

- pIC50 (Collagenase 3): 8.00
Compound: CC(C)COC(=O)Nc1ccc2oc3cc(S(=O)(=O)N[C@H](C(=O)O)C(C)C)ccc3c2c1

- pIC50 (Collagenase 3): 4.60
Compound: CC(C)[C@H](NS(=O)(=O)c1ccc2oc3ccccc3c2c1)C(=O)O

- pIC50 (Collagenase 3): 7.23
Compound: CC(C)[C@H](NS(=O)(=O)c1ccc2c(c1)oc1ccc(NC(N)=O)cc12)C(=O)O

Compound: COC(=O)Nc1ccc2oc3cc(S(=O)(=O)N[C@H](C(=O)O)C(C)C)ccc3c2c1
- Cmax [3]: 3080 ng/mL
- AUC [4]: 7480 ng·h/mL
- bioavailability [5]: 27%
- pIC50 (Stromelysin-1): 6.45
- pIC50 (Matrilysin): < 4.66
- pIC50 [6]: 5.89
- pIC50 [7]: < 5.30
- pIC50 [8]: < 5.00
- pIC50 [9]: 5.96
- half-life [10]: > 1 h
- half-life [11]: > 1 h
- half-life [12]: > 1 h
- half-life [13]: > 1 h
- Activity [14]: Not Active
- half-life [15]: > 1 h
- inhibition in vivo at 30 mg/kg (Mus musculus [16]): > 70%
- minimal effective dose (Mus musculus [17]): 5 mg/kg
- inhibition in vivo at 30 mg/kg (Mus musculus [18]): > 50%
- pIC50 (Interstitial collagenase): < 5.22
- pIC50 [19]: 7.65
- pIC50 [20]: 6.80
- pIC50 (Collagenase 3): 6.92
- Vd [1]: 1.9 L/kg
- clearance [2]: 17.2 mL/min/kg
- half-life [21]: 3 h
- pIC50 [22]: 6.49

- Cmax [3]: 7790 ng/mL
- AUC [4]: 10800 ng·h/mL
- bioavailability [5]: 42%
- pIC50 (Collagenase 3): 7.00
- Vd [1]: 1.6 L/kg
- clearance [2]: 19 mL/min/kg
- half-life [21]: 3.4 h
Compound: CCOC(=O)Nc1ccc2oc3cc(S(=O)(=O)N[C@H](C(=O)O)C(C)C)ccc3c2c1

- pIC50 (Collagenase 3): 8.00
Compound: CC(C)[C@H](NS(=O)(=O)c1ccc2c(c1)oc1ccc(NC(=O)OCCF)cc12)C(=O)O

- pIC50 (Collagenase 3): 6.66
Compound: CC(C)[C@H](NS(=O)(=O)c1ccc2c(c1)oc1ccc(NC(=O)Oc3ccccc3)cc12)C(=O)O

- pIC50 (Collagenase 3): 7.00
Compound: Cc1ccc(OC(=O)Nc2ccc3oc4cc(S(=O)(=O)N[C@H](C(=O)O)C(C)C)ccc4c3c2)cc1

Compound: CC(C)[C@H](NS(=O)(=O)c1ccc2c(c1)oc1ccc(NC(=O)Nc3ccsc3)cc12)C(=O)O
- pIC50 (Collagenase 3): 8.48
